Laboratory results: patent publication US9012441B2, “Therapeutic compounds” (Gilead Sciences, Inc., priority 2013, dated 2015)

Experiments:
[1] = from C=CCc1c(CC(=O)NN(Cc2cc(F)cc(Br)c2)C(=O)N(C)c2ccc(Cl)cc2)c2ccccc2n1C(=O)OC(C)(C)C; cc_pd bond; Pd(OAc)2; acetonitrile; 3.1 mM; 110.0 °C; 1.0 h
[2] = Test B: Cytotoxicity Assay (uninfected MT-4 cells); assay type: cell-based; settings: human, same protocol as Test A, read-out: MT4-CC50
Experimental: (§1) For the antiviral assay, 40 μL of 1× test concentration of 3-fold serially diluted compound in culture medium with 10% FBS was added to each well of a 384-well plate (10 concentrations) in quadruplicate. MT-4 cells were next mixed with HIV-IIIb at an m.o.i of 0.003 for 1 hour, after which time 35 μL of virus/cell mixture (2000 cells) was immediately added to each well containing 40 μL of diluted compound. The plates were then incubated at 37° C. for 5 days. After 5 days of incubation, 25 μl of 2× concentrated CellTiter-Glo™ Reagent (catalog #G7571, Promega Biosciences, Inc., Madison, Wis.) was added to each well containing MT-4 cells. Cell lysis was carried out by incubating at room temperature for 10 min and then chemiluminescence was read. […] Test B: Cytotoxicity Assay Compound cytotoxicity and the corresponding CC50 values were determined using the same protocol as described in the antiviral assay (Test A) except that uninfected cells were used.

HIV-IIIb = assay: Test A: Antiviral Assay in MT4 Cells; assay type: cell-based, HIV-1; settings: Human immunodeficiency virus 1, MT4, 120 h, read-out: % Inh @ 2 uM (percent inhibition of virus-induced cell killing); 2 uM test compound; MT-4 cells infected with HIV-IIIb, 5 days, CellTiter-Glo
Experimental: as §1, with “Test A: Antiviral Assay in MT4 Cells For” for “For”, “Accordingly,” for “Test B: Cytotoxicity Assay Compound cytotoxicity and”, “compounds disclosed herein may be useful for treating an HIV virus infection, treating AIDS or for delaying” for “corresponding CC50 values were determined using”, “onset of AIDS or ARC symptoms.” for “same protocol as described in the antiviral assay (Test A) except that uninfected cells were used.”

CN(C(=O)N1Cc2cc(F)cc(c2)/C=C\Cc2c(c3ccccc3n2C(=O)OC(C)(C)C)CC(=O)N1)c1ccc(Cl)cc1
ring closure, yield of all isomers [1]: 23.6%

COc1ccc(N(C)C(=O)[C@@H]2Cc3cccc(c3)CC=Cc3[nH]c4ccccc4c3CC(=O)N2)cc1 (stereo in doubt) [Example 11, (4S,12Z)—N-(4-methoxyphenyl)-N-methyl-2-oxo-2,3,4,5,11,14-hexahydro-1H-6,10-(metheno)azacyclopentadecino[5,4-b]indole-4-carboxamide]
CC50 at 5 days [2]: 23.9 µM
inhibition at 2 µM (HIV-IIIb): 102%

COc1ccc(N(C)C(=O)[C@@H]2Cc3cccc(c3)CCCc3[nH]c4ccc(O)cc4c3CC(=O)N2)cc1 [Example 2]
CC50 at 5 days [2]: > 46.4 µM
inhibition at 2 µM (HIV-IIIb): 102%

COc1ccc(N(C)C(=O)[C@@H]2Cc3cccc(c3)CCc3[nH]c4ccccc4c3CC(=O)N2)cc1 [Example 3]
CC50 at 5 days [2]: > 53 µM
inhibition at 2 µM (HIV-IIIb): 99.2%

COc1ccc(N(C)C(=O)[C@@H]2Cc3cccc(c3)CCCCc3[nH]c4ccccc4c3CC(=O)N2)cc1 [Example 4]
CC50 at 5 days [2]: > 48.7 µM
inhibition at 2 µM (HIV-IIIb): 79.6%

COc1ccc(N(C)C(=O)[C@@H]2Cc3cccc(c3)CCSCc3[nH]c4ccc(O)cc4c3CC(=O)N2)cc1 [Example 6]
CC50 at 5 days [2]: 49.2 µM
inhibition at 2 µM (HIV-IIIb): 94.3%

COc1ccc(N(C)C(=O)[C@@H]2Cc3cccc(c3)CCSCc3[nH]c4ccc(F)cc4c3CC(=O)N2)cc1 [Example 7]
CC50 at 5 days [2]: > 53 µM
inhibition at 2 µM (HIV-IIIb): 26.3%

COc1ccc(N(C)C(=O)[C@@H]2Cc3cccc(c3)CCS(=O)(=O)Cc3[nH]c4ccccc4c3CC(=O)N2)cc1 [Example 8, (11S)—N-(4-methoxyphenyl)-N-methyl-13-oxo-3,4,10,11,12,13,14,19-octahydro-1H-9,5-(metheno)[1,7]thiazacyclohexadecino[3,4-b]indole-11-carboxamide 2,2-dioxide]
CC50 at 5 days [2]: > 53 µM
inhibition at 2 µM (HIV-IIIb): 0.6%

COc1ccc(N(C)C(=O)[C@@H]2Cc3cccc(c3)CCS(=O)(=O)Cc3[nH]c4ccc(O)cc4c3CC(=O)N2)cc1 [Example 9]
CC50 at 5 days [2]: > 53 µM
inhibition at 2 µM (HIV-IIIb): 0.7%

COc1ccc(N(C)C(=O)[C@@H]2Cc3cccc(c3)CCS(=O)(=O)Cc3[nH]c4ccc(F)cc4c3CC(=O)N2)cc1 [Example 10]
CC50 at 5 days [2]: > 53 µM
inhibition at 2 µM (HIV-IIIb): 1.8%

COc1ccc(N(C)C(=O)[C@@H]2Cc3cccc(c3)C/C=C/c3[nH]c4ccc(F)cc4c3CC(=O)N2)cc1 [Example 12]
CC50 at 5 days [2]: 31.8 µM
inhibition at 2 µM (HIV-IIIb): 85.5%

COc1ccc(N(C)C(=O)[C@@H]2Cc3cccc(c3)C/C=C\c3[nH]c4ccccc4c3CC(=O)N2)cc1 [Example 13]
CC50 at 5 days [2]: > 53 µM
inhibition at 2 µM (HIV-IIIb): 99%

COc1ccc(N(C)C(=O)[C@@H]2Cc3cccc(c3)C/C=C\c3[nH]c4ccc(F)cc4c3CC(=O)N2)cc1 [Example 14]
CC50 at 5 days [2]: 44.3 µM
inhibition at 2 µM (HIV-IIIb): 95.6%

COc1ccc(N(C)C(=O)[C@@H]2Cc3cccc(c3)CS(=O)(=O)Cc3[nH]c4ccccc4c3CC(=O)N2)cc1 [Example 16, (10S)—N-(4-methoxyphenyl)-N-methyl-12-oxo-9,10,11,12,13,18-hexahydro-1H-8,4-(metheno)[1,7]thiazacyclopentadecino[3,4-b]indole-10(3H)-carboxamide 2,2-dioxide]
CC50 at 5 days [2]: > 53 µM
inhibition at 2 µM (HIV-IIIb): 67.8%

COc1ccc(N(C)C(=O)[C@@H]2Cc3cccc(c3)/C=C\c3[nH]c4ccccc4c3CC(=O)N2)cc1 [Example 17, (4S,11Z)—N-(4-methoxyphenyl)-N-methyl-2-oxo-1,2,3,4,5,13-hexahydro-6,10-(metheno)azacyclotetradecino[5,4-b]indole-4-carboxamide]
CC50 at 5 days [2]: > 53 µM
inhibition at 2 µM (HIV-IIIb): 4.7%

COc1ccc(N(C)C(=O)[C@@H]2Cc3cccc(c3)S(=O)(=O)Cc3[nH]c4ccccc4c3CC(=O)N2)cc1 [Example 19, (9S)—N-(4-methoxyphenyl)-N-methyl-11-oxo-8,9,10,11,12,17-hexahydro-1H-7,3-(metheno)[1,7]thiazacyclotetradecino[3,4-b]indole-9-carboxamide 2,2-dioxide]
CC50 at 5 days [2]: > 53 µM
inhibition at 2 µM (HIV-IIIb): 80.3%

COc1ccc(N(C)C(=O)[C@@H]2Cc3cccc(c3)CS(=O)(=O)c3[nH]c4ccccc4c3CC(=O)N2)cc1 [Example 21, (9S)—N-(4-methoxyphenyl)-N-methyl-11-oxo-8,9,10,11,12,17-hexahydro-7,3-(metheno)[1,6]thiazacyclotetradecino[2,3-b]indole-9(2H)-carboxamide 1,1-dioxide]
CC50 at 5 days [2]: > 53 µM
inhibition at 2 µM (HIV-IIIb): 11.8%

COc1ccc(N(C)C(=O)[C@@H]2Cc3cccc(c3)/C=C/Cc3[nH]c4ccccc4c3CC(=O)N2)cc1 [Example 22, (4S,11E)-N-(4-methoxyphenyl)-N-methyl-2-oxo-2,3,4,5,13,14-hexahydro-1H-6,10-(metheno)azacyclopentadecino[5,4-b]indole-4-carboxamide]
CC50 at 5 days [2]: > 52.6 µM
inhibition at 2 µM (HIV-IIIb): 64.5%

COc1ccc(N(C)C(=O)[C@@H]2Cc3cc(F)cc(c3)CCCc3[nH]c4ccccc4c3CC(=O)N2)cc1 [Example 23K, (4S)-8-fluoro-N-(4-methoxyphenyl)-N-methyl-2-oxo-2,3,4,5,11,12,13,14-octahydro-1H-6,10-(metheno)azacyclopentadecino[5,4-b]indole-4-carboxamide]
CC50 at 5 days [2]: > 50.3 µM
inhibition at 2 µM (HIV-IIIb): 94%

CN(C(=O)[C@@H]1Cc2cc(F)cc(c2)CCCc2[nH]c3ccccc3c2CC(=O)N1)c1ccc(Cl)cc1 [Example 24, (4S)—N-(4-chlorophenyl)-8-fluoro-N-methyl-2-oxo-2,3,4,5,11,12,13,14-octahydro-1H-6,10-(metheno)azacyclopentadecino[5,4-b]indole-4-carboxamide]
CC50 at 5 days [2]: 47.1 µM
inhibition at 2 µM (HIV-IIIb): 100%

CN(Cc1ccccc1)C(=O)[C@@H]1Cc2cc(F)cc(c2)CCCc2[nH]c3ccccc3c2CC(=O)N1 [Example 25, (4S)—N-benzyl-8-fluoro-N-methyl-2-oxo-2,3,4,5,11,12,13,14-octahydro-1H-6,10-(metheno)azacyclopentadecino[5,4-b]indole-4-carboxamide]
CC50 at 5 days [2]: 52.3 µM
inhibition at 2 µM (HIV-IIIb): 84.9%

COc1ccc(N(C)C(=O)[C@@H]2Cc3cc(F)cc(c3)/C=C\Cc3[nH]c4ccccc4c3CC(=O)N2)cc1 [Example 26, (4S,11Z)-8-fluoro-N-(4-methoxyphenyl)-N-methyl-2-oxo-2,3,4,5,13,14-hexahydro-1H-6,10-(metheno)azacyclopentadecino[5,4-b]indole-4-carboxamide]
CC50 at 5 days [2]: 34.8 µM
inhibition at 2 µM (HIV-IIIb): 79.9%

COc1ccc(N(C)C(=O)[C@@H]2Cc3cc(F)cc(c3)C/C=C/c3[nH]c4ccccc4c3CC(=O)N2)cc1 [Example 27, (4S,12E)-8-fluoro-N-(4-methoxyphenyl)-N-methyl-2-oxo-2,3,4,5,11,14-hexahydro-1H-6,10-(metheno)azacyclopentadecino[5,4-b]indole-4-carboxamide]
CC50 at 5 days [2]: 18.9 µM
inhibition at 2 µM (HIV-IIIb): 92.5%

COc1ccc2[nH]c3c(c2n1)CC(=O)N[C@H](C(=O)N(C)c1ccc(Cl)cc1)Cc1cccc(c1)CC3 [Example 28, (14S)—N-(4-chlorophenyl)-2-methoxy-N-methyl-16-oxo-5,6,7,13,14,15,16,17-octahydro-12,8-(metheno)pyrido[2′,3′:4,5]pyrrolo[3,2-d]azacyclotetradecine-14-carboxamide]
CC50 at 5 days [2]: 18.3 µM
inhibition at 2 µM (HIV-IIIb): 63.9%

CN(C(=O)[C@@H]1Cc2cccc(c2)CCc2[nH]c3ccc(=O)[nH]c3c2CC(=O)N1)c1ccc(Cl)cc1 [Example 29, (14S)—N-(4-chlorophenyl)-N-methyl-2,16-dioxo-1,2,5,6,7,13,14,15,16,17-decahydro-12,8-(metheno)pyrido[2′,3′:4,5]pyrrolo[3,2-d]azacyclotetradecine-14-carboxamide]
CC50 at 5 days [2]: > 53 µM
inhibition at 2 µM (HIV-IIIb): 87.6%

CN(C(=O)[C@@H]1Cc2cccc(c2)CCCc2[nH]c3ccc(=O)[nH]c3c2CC(=O)N1)c1ccc(Cl)cc1 [Example 30, (15S)—N-(4-chlorophenyl)-N-methyl-2,17-dioxo-1,5,6,7,8,14,15,16,17,18-decahydro-2H-13,9-(metheno)pyrido[2′,3′:4,5]pyrrolo[3,2-d]azacyclopentadecine-15-carboxamide]
CC50 at 5 days [2]: 24.4 µM
inhibition at 2 µM (HIV-IIIb): 0%

CN(C(=O)N1Cc2cc(F)cc(c2)CCCc2[nH]c3ccccc3c2CC(=O)N1)c1ccc(Cl)cc1 [Example 31, N-(4-chlorophenyl)-8-fluoro-N-methyl-2-oxo-2,3,11,12,13,14-hexahydro-1H-6,10-(metheno)[1,2]diazacyclopentadecino[6,5-b]indole-4(5H)-carboxamide]
CC50 at 5 days [2]: 21.7 µM
inhibition at 2 µM (HIV-IIIb): 2.4%
